In ChEMBL document CHEMBL5370588, “Unraveling the unexpected aggregation behavior of Pyrazole-Based compounds Targeting Mycobacterium tuberculosis UDP-Galactopyranose mutase” (Bioorg Med Chem, 2023):
Calls of active or inactive are those of the source. The rule behind the calls is not given here.

Columns and labels:
[1] = biological target: T1, UDP-galactopyranose mutase (Mycobacterium tuberculosis, UniProt P9WIQ1); experiment: Inhibition of His6-tagged Mycobacterium tuberculosis reduced UDP-galactopyranose mutase expressed in Escherichia coli BL21 assessed as reduction in UDPGalf production using UDPGalp as substrate in presence of TritonX100 by HPLC analysis
T1 sequence (P9WIQ1 whole entry): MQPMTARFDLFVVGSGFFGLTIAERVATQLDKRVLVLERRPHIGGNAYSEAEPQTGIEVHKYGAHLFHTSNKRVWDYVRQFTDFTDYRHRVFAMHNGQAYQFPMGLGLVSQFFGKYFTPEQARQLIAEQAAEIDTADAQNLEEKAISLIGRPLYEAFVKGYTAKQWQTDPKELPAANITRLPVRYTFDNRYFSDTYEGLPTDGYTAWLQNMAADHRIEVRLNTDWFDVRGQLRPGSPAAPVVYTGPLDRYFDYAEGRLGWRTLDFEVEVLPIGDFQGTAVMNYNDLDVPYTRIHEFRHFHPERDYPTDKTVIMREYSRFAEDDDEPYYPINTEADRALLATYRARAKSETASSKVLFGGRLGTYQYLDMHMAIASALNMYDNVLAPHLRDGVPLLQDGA

[2] = biological target: T1, UDP-galactopyranose mutase; experiment: Inhibition of His6-tagged Mycobacterium tuberculosis reduced UDP-galactopyranose mutase expressed in Escherichia coli BL21 assessed as reduction in UDPGalf production using UDPGalp as substrate by HPLC analysis
[3] = biological target: T1, UDP-galactopyranose mutase; experiment: Inhibition of Mycobacterium tuberculosis UDP-galactopyranose mutase expressed in Escherichia coli BL21 using […] as substrate by cornish-bowden plot analysis
[4] = Aggregation property of compound in PBS at pH 7 at 80 uM by DLS assay; assay type: physicochemical; details: buffer, pH 7, 80 µM
[5] = biological target: UDP-galactopyranose mutase (Mycobacterium tuberculosis) (UniProt P9WIQ1); experiment: Binding affinity to His6-tagged Mycobacterium tuberculosis UDP-galactopyranose mutase expressed in Escherichia coli BL21 assessed as decrease in melting temperature at 800 to 1000 uM in presence of Sypro Orange by thermal shift assay; details: dose 800-1000 µM
Chain of UDP-galactopyranose mutase (Mycobacterium tuberculosis) (P9WIQ1 whole entry, looked up): as the sequence (P9WIQ1 whole entry) above

[6] = biological target: UDP-galactopyranose mutase (Mycobacterium tuberculosis) (UniProt P9WIQ1); experiment: Binding affinity to His6-tagged Mycobacterium tuberculosis reduced UDP-galactopyranose mutase expressed in Escherichia coli BL21 assessed as increase in corrected fluorescence intensity at 100 to 1000 uM in presence of ANS by fluorescence-based binding assay; details: dose 100-1000 µM
[7] = biological target: UDP-galactopyranose mutase (Mycobacterium tuberculosis) (UniProt P9WIQ1); experiment: Binding affinity to His6-tagged Mycobacterium tuberculosis UDP-galactopyranose mutase expressed in Escherichia coli BL21 assessed as change melting temperature at 20 uM in presence of Sypro Orange by thermal shift assay
[8] = biological target: UDP-galactopyranose mutase (Mycobacterium tuberculosis) (UniProt P9WIQ1); experiment: Binding affinity to His6-tagged Mycobacterium tuberculosis UDP-galactopyranose mutase expressed in Escherichia coli BL21 assessed as increase in melting temperature using UDP-Galp as substrate at < 100 uM in presence of Sypro Orange by thermal shift assay
[9] = Aggregation property of compound in PBS at pH 7 assessed as critical aggregation concentration by DLS assay; assay type: physicochemical; details: buffer
[10] = biological target: UDP-galactopyranose mutase (Mycobacterium tuberculosis) (UniProt P9WIQ1); experiment: Binding affinity to His6-tagged Mycobacterium tuberculosis UDP-galactopyranose mutase expressed in Escherichia coli BL21 assessed as increase in melting temperature using UDP-Galp as substrate at 600 to 800 uM in presence of Sypro Orange by thermal shift assay; details: dose 600-800 µM
[11] = biological target: UDP-galactopyranose mutase (Mycobacterium tuberculosis) (UniProt P9WIQ1); experiment: Binding affinity to His6-tagged Mycobacterium tuberculosis reduced UDP-galactopyranose mutase expressed in Escherichia coli BL21 assessed as increase in corrected fluorescence intensity using UDP-Galp as substrate at 100 to 1000 uM in presence of ANS by fluorescence-based binding assay; details: dose 100-1000 µM
[12] = biological target: UDP-galactopyranose mutase (Mycobacterium tuberculosis) (UniProt P9WIQ1); experiment: Binding affinity to His6-tagged Mycobacterium tuberculosis UDP-galactopyranose mutase expressed in Escherichia coli BL21 assessed as decrease in melting temperature using UDP-Galp as substrate at 100 to 400 uM in presence of Sypro Orange by thermal shift assay; details: dose 100-400 µM
[13] = biological target: T1, UDP-galactopyranose mutase; experiment: Inhibition of Mycobacterium tuberculosis UDP-galactopyranose mutase expressed in Escherichia coli BL21 using […] as substrate by Dixon plot analysis
[14] = biological target: UDP-galactopyranose mutase (Mycobacterium tuberculosis) (UniProt P9WIQ1); experiment: Binding affinity to His6-tagged Mycobacterium tuberculosis UDP-galactopyranose mutase expressed in Escherichia coli BL21 assessed as change melting temperature up to 600 uM in presence of Sypro Orange by thermal shift assay
[15] = biological target: T1, UDP-galactopyranose mutase; experiment: Inhibition of His6-tagged Mycobacterium tuberculosis UDP-galactopyranose mutase expressed in Escherichia coli BL21 using […] as substrate by Dixon plot analysis

Question: Which IC50 [1] does the source give for O=C(CCc1cn(-c2ccc(Cl)cc2)nn1)Oc1ccc(Cl)cc1 here?
Answer: Its IC50 is 1260 µM.

Question: And the IC50 [2]?
Answer: The IC50 was 530 µM.

Question: Which results are given for Cc1[nH]n(-c2ccc(Cl)cc2)c(=O)c1C(=O)c1ccc(Cl)cc1?
Answer: Ki [3]: ~400 µM; Activity [4]: Active; Activity [5]: Active; IC50 [1]: 590 µM; Activity [6]: Active; ΔTm [7]: 5 °C; Activity [8]: Active; CAC [9]: > 50 µM; Activity [10]: Active; IC50 [2]: 880 µM; Activity [11]: Active; Activity [12]: Active; Ki [13]: ~135 µM; Activity [14]: inactive

Question: For Cc1nn(-c2ccc(Cl)cc2)c(O)c1C(=O)c1ccccc1, which IC50 [1] is on record?
Answer: Its IC50 is 1510 µM.

Question: And the IC50 [2]?
Answer: Its IC50 is 610 µM.

Question: Which IC50 [1] does the source give for Cc1nn(-c2ccc(Cl)cc2)c(O)c1S(=O)(=O)c1ccc(Cl)cc1 here?
Answer: Its IC50 is 4340 µM.

Question: And the IC50 [2]?
Answer: Its IC50 is 225 µM.

Question: For Cc1cc(OC(=O)c2ccc(S(N)(=O)=O)cc2)n(-c2ccc(Cl)cc2)n1, which IC50 [1] is on record?
Answer: The IC50 was 1130 µM.

Question: And the Ki [15]?
Answer: The Ki was roughly 51 µM.

Question: What about the IC50 [2] of the same molecule?
Answer: The IC50 was 500 µM.

Question: Which IC50 [1] does the source give for OC(c1ccc(Cl)cc1)c1cn(-c2ccc(Cl)cc2)nn1 (stereo not given) here?
Answer: Its IC50 is 2710 µM.

Question: What about the IC50 [2] of the same molecule?
Answer: The IC50 was 150 µM.
